{"source": "patent US9168269B2", "about": "“Inhibitors of long and very long chain fatty acid metabolism as broad spectrum anti-virals” (THE TRUSTEES OF PRINCETON UNIVERSITY, priority 2010, dated 2015)", "key": {"HCMV AD169 strain": {"test_system": "HCMV AD169 strain", "test": "microbe, parasite or virus in culture", "format": "cell-based, human cytomegalovirus", "conditions": "5 μg/ml"}, "HCMV": {"test_system": "HCMV", "test": "proposed combination of TOFA and triacsin C, virus replication", "format": "cell-based, human cytomegalovirus", "conditions": "for magnitude of the therapeutic effect: 10 μg/mL TOFA"}, "[1]": {"test_system": "HCV JFH1 strain derivative", "test": "release of infectious HCV from Huh7.5 cells, TCID50 assay", "method": "Huh7.5 cells were infected with a derivative of HCV JFH1 strain (MOI=0.1 TCID50/cell). Infected cells were maintained in medium containing 10% fetal calf serum plus DMSO (0 nM triacsin C) or triacsin C at the indicated concentrations. Media were harvested at 72 h and infectious virus was quantified by standard TCID50 assay on Huh7.5 cells.\nVirus yield in the medium at 72 h after infection was determined.\nHuh7.5 cells were infected a derivative of HCV JFH1 strain (MOI=0.1 TCID50/cell) Infected cells were maintained in medium containing 10% fetal calf serum plus DMSO (0 μg/ml TOFA) or TOFA at the indicated doses. Media were harvested at 72 h and infectious virus was quantified by standard TCID50 assay on Huh7.5 cells.\nHuh7.5 cells which was infected with HCV and treated with indicated amounts of TOFA (FIG. 21)."}, "[2]": {"test_system": "viral growth and/or replication", "test": "proposed combination of TOFA and ELOVL inhibitor, virus replication", "format": "cell-based", "conditions": "presence of a therapeutically effective concentration of ELOVL inhibitor"}, "HIV-1": {"test_system": "HIV-1", "test": "proposed combination of TOFA and enfurtivide, HIV-1-infected C8166 cells", "format": "cell-based", "conditions": "for magnitude of the therapeutic effect: 10 μg/mL TOFA", "source_text": "Non-limiting examples of assays that could be performed to assess the effect of a combination of an ACC inhibitor and an entry inhibitor on HIV-1 replication follow. Assays for TOFA-mediated antiviral activity using HIV-1-infected C8166 cells have been described in (WO 2009/023059). In each assay, various concentrations of TOFA can be combined with various concentrations of enfurtivide and assayed for their effect on virus replication. In one preferred embodiment, a physiological concentration of enfurtivide is held constant as the dose of TOFA is increased. Control cultures are treated with no drug, enfurtivide alone or the various concentrations of TOFA alone. Samples are taken at 24, 48, 72 and 96 hours after initiation of drug treatment. The antiviral effect of enfurtivide plus each concentration of TOFA is then compared to the activity of enfurtivide alone or the various concentrations of TOFA alone. Uptake of neutral red dye is used to determine the relative level of toxicity in duplicate cultures at each time a sample is harvested. […] At 10 μg/mL of TOFA, the magnitude of the therapeutic effect is increased from ^˜10-fold in the absence of enfurtivide to ^˜100-fold in its presence. […] Similar results are obtained for other entry inhibitors."}, "influenza A": {"test_system": "influenza A", "format": "cell-based", "conditions": "for magnitude of the therapeutic effect: 10 μg/mL TOFA"}}, "note": "“And” between values parts separate entries of the source, which are not always exact repeats. Equal entries are not always repeated. Where two headings read alike, the source gives them in different places."}
{"compound": "CCCCCCCCCCCCCCOc1ccc(C(=O)O)o1", "note": "[TOFA]", "values": [{"measurement": "host cell toxicity, neutral red dye assay", "setting": "host cell; combined use of TOFA and enfurtivide", "value": "does not increase host cell toxicity"}, {"measurement": "host cell toxicity, neutral red dye assay", "setting": "host cell; combined use of TOFA and oseltamivir", "value": "does not increase host cell toxicity"}, {"measurement": "host cell toxicity, neutral red dye assay", "setting": "host cell; combined use of TOFA and triacsin C", "value": "does not increase host cell toxicity"}, {"measurement": "inhibition of HCMV replication", "setting": "HCMV AD169 strain", "value": "> 500", "unit": "fold"}, {"measurement": "concentration of TOFA required to produce a 10-fold reduction in HCMV replication", "setting": "HCMV", "value": "~10 μg/mL and < 5 μg/mL"}, {"measurement": "magnitude of the therapeutic effect", "setting": "HCMV; absence of triacsin C", "value": "~10", "unit": "fold"}, {"measurement": "magnitude of the therapeutic effect", "setting": "HCMV; presence of triacsin C", "value": "~100", "unit": "fold"}, {"measurement": "inhibition of release of infectious HCV particles", "setting": "[1]; 5 μg/ml", "value": "> 500", "unit": "fold"}, {"measurement": "inhibition of release of infectious HCV particles", "setting": "[1]; 10 μg/ml", "value": "> 1000", "unit": "fold"}, {"measurement": "reduction of the TOFA concentration required to reduce viral growth and/or replication by 10-fold", "setting": "[2]", "value": "≥ 2", "unit": "fold"}, {"measurement": "magnitude of the therapeutic effect", "setting": "HIV-1; absence of enfurtivide", "value": "~10", "unit": "fold"}, {"measurement": "magnitude of the therapeutic effect", "setting": "HIV-1; presence of enfurtivide", "value": "~100", "unit": "fold"}, {"measurement": "concentration of TOFA required to produce a 10-fold reduction in HIV-1 replication", "setting": "HIV-1; TOFA alone", "value": "~10", "unit": "μg/mL"}, {"measurement": "concentration of TOFA required to produce a 10-fold reduction in HIV-1 replication", "setting": "HIV-1; presence of a pharmacologically acceptable concentration of enfurtivide", "value": "< 5", "unit": "μg/mL"}, {"measurement": "magnitude of the therapeutic effect", "setting": "influenza A; absence of oseltamivir", "value": "~10", "unit": "fold"}, {"measurement": "magnitude of the therapeutic effect", "setting": "influenza A; presence of oseltamivir", "value": "~100", "unit": "fold"}, {"measurement": "concentration of TOFA required to produce a 10-fold reduction in influenza A replication", "setting": "influenza A; TOFA alone", "value": "~10", "unit": "μg/mL"}, {"measurement": "concentration of TOFA required to produce a 10-fold reduction in influenza A replication", "setting": "influenza A; presence of a pharmacologically acceptable concentration of oseltamivir", "value": "< 5", "unit": "μg/mL"}]}
